For assay [1], the system named is Escherichia coli strain SM101 (pEBZ181) recA-lux SOS reporter gene cells. In words: Microtitre plate assay with SOS reporter gene system (recA-lux bioluminescence stimulated by ciprofloxacin). It is filed as cell-based. The conditions noted are these: for Rel. bioluminescence: microtitre plate, 28° C., 60 min, relative to CTAB-free reference. From the text:
(§1) The reporter gene cell consists of the Escherichia coli strain SM101 which harbours the recombinant plasmid pEBZ181. This plasmid encodes a fusion between the recA promoter from E. coli and the structural genes of the bacterial luminescence of Vibrio fischeri (lux genes C, D, A, B, E and G). To construct the plasmid, the recA promoter-harbouring Bam H I fragment from the plasmid pUA80 [Barbe J, Fernandez de Henestrosa A R, Calero S, and Gilbert I (1991) Chromogenic Method for rapid isolation of recA-like mutants of Gram-negative bacteria. J. Bacteriol. 173: 404-406] was cloned into a derivative of the vector pEBZ112 [Peitzsch N, Eberz G, and Nies D (1998) Alcaligenes eutrophus as a bacterial chromate sensor. Appl. Environm. Microbiol. 64: 453-458] which harbours, inserted into the Nco I site of the luxG gene, a lacZ cassette [Becker A (1993) Analyse der Succinoglycan-Biosyntheseregion von Rhizobium meliloti 2011: Untersuchungen zur Identifizierung des bakteriellen Infektionssignals in der Symbiose mit Luzeme, doctoral thesis, Bielefeld University, Germany]. Plasmid pEBZ181 was transformed by standard methods [Sambrook J, Fritsch E F, and Maniatis T (1989) Molecular cloning: A laboratory manual (2nd edn), Cold Spring Harbor Laboratory Press] into the Escherichia coli strain SMIOI (obtained from E. coli Genetic Stock Center, Yale University, New Haven, USA) and employed for bioimaging experiments.
(§2) Treatment of bacteria with antibacterial agents such as 4-quinolonecarboxylic acids leads to induction of the so-called SOS repair mechanism [Walker C G (1984) Mutagenesis and inducible responses to deoxyribonucleic acid damage in Escherichia coli. Microbiol. Rev. 48: 60-93; Phillips I, Culabras E, Moreno F, and Baquero F (1987) Induction of the SOS response by new 4-quinolones. J. Antimicrob. Chemother. 20: 631-638; Piddock L J V, and Wise R (1987) Induction of the SOS response in Escherichia coli by 4-quinone antimicrobial agents. FEMS Microbiol. Lett. 41: 289-294]. The RecA protein is a main regulator of this repair mechanism, and SOS induction leads to enhanced expression of the recA gene. Measurement of the synthesis of the RecA protein [Little J W and Mount D W (1982) The SOS regulatory system of Escherichia coli. Cell 29: 11-22; Witkin E M (1976) Ultraviolet mutagenesis and inducible DNA repair in Escherichia coli. Bacteriol. Rev. 40: 864-907] or of recA-reporter gene fusions [Nunoshiba T and Nishioka H (1991) Rec-lac test for detecting SOS-inducing activity of environmental genotoxic substances. Mutation Res. 254:71-77] is one possible way of measuring SOS induction and consequently the effect of 4-quinolonecarboxylic acids. Since the strain E. coli SM101 (pEBZ181) harbours a plasmid with a recA-lux reporter gene fusion, it is suitable for detecting 4-quinolonecarboxylic acids or other SOS-inducing compounds. The presence of such compounds leads to enhanced expression of the luciferase gene and thus to a stimulation of bioluminescence.
In both assay formats ciprofloxacin was used for effect-specific induction of the SOS response. The bioluminescence stimulated in the reporter gene system used in this case provided the read-out signal which was recorded by video imaging. In order to test the tolerance of the two bioassay formats to interfering substances, assays were carried out in the presence of cytotoxic cetyltrimethylammonium bromide (CTAB).
Five assay solutions were made up in a 96-well microtitre plate (Dynatech Microlite). A volume of 200 μl contained in each case:
16 μl of reporter gene cell suspension (OD: 1.2 at 660 nm) in 2% LB medium
90 μl of solution of substances 1.-5. in water
1. 25 ng of ciprofloxacin hydrochloride monohydrate
2. 25 ng of ciprofloxacin hydrochloride monohydrate+50 ng of CTAB
3. 25 ng of ciprofloxacin hydrochloride monohydrate+100 ng of CTAB
4. 25 ng of ciprofloxacin hydrochloride monohydrate+200 ng of CTAB
5. 25 ng of ciprofloxacin hydrochloride monohydrate+500 ng of CTAB […]

Assay [2] has the same test system. As to the kind of experiment: Activity measurement with the diffusion-controlling sensor layer (SOS reporter gene cells in agarose on TLC plate). It is filed as cell-based. The following applies: for Rel. bioluminescence: sensor layer 2 mm, 28° C., 60 min.
Text: as §1
as §2, with “Mutation Res. 254:71-77] is one possible way of measuring SOS induction and consequently the effect of 4-quinolonecarboxylic acids. Since the strain E. coli SM101 (pEBZ181) harbours a plasmid with a recA-lux reporter gene fusion, it is suitable for detecting 4-quinolonecarboxylic acids or other SOS-inducing compounds. The presence of such compounds leads to enhanced expression of the luciferase gene and thus to a stimulation of bioluminescence.” left out
In both assay formats ciprofloxacin was used for effect-specific induction of the SOS response. The bioluminescence stimulated in the reporter gene system used in this case provided the read-out signal which was recorded by video imaging. […]

For `CCCCCCCCCCCCCCCC[N+](C)(C)C.[Br-]` [CTAB, cetyltrimethylammonium bromide], the Rel. bioluminescence in assay [1] (CTAB 50 ng/200 μl with 25 ng ciprofloxacin hydrochloride monohydrate) was 0.88; in assay [1] (CTAB 100 ng/200 μl with 25 ng ciprofloxacin hydrochloride monohydrate), 0.87; in assay [1] (CTAB 200 ng/200 μl with 25 ng ciprofloxacin hydrochloride monohydrate) it was 0.78; in assay [1] (CTAB 500 ng/200 μl with 25 ng ciprofloxacin hydrochloride monohydrate), 0.44; in assay [2] (CTAB 250 ng/200 μl (calculated analogous concentration) with 10 ng ciprofloxacin hydrochloride monohydrate) it was 1.002; in assay [2] (CTAB 500 ng/200 μl (calculated analogous concentration) with 10 ng ciprofloxacin hydrochloride monohydrate) it was 1.023. In addition, the reduction in bioluminescence entry in assay [1] (microtitre plate format, CTAB concentrations up to 500 ng/200 μl, ciprofloxacin-stimulated) is on record as “more than 50%”. In assay [1] (microtitre plate format, addition of CTAB, ciprofloxacin-stimulated), the “fall in the bioluminescence (of the initial value)” value was “about 40%”. In addition, the “bioactivity measurement on addition of CTAB” value in assay [2] (sensor layer format, ciprofloxacin-stimulated bioluminescence) is recorded as “not impaired”. Besides, in assay [2] (sensor layer format, up to CTAB concentrations of 500 ng/200 μl), the “relative bioluminescence as a measure of the selective stimulation by ciprofloxacin” value is recorded as “remained constant”.

The values are drawn from patent US20070292912A1, “Diffusion-controlling sensor layer” (priority 1999, published 2007).
